Data: patent US20230278972A1, “SUBSTITUTED HALOALKYL SULFONANILIDE HERBICIDES” (FMC Corporation, priority 2020, published 2023)

Assays:
Assay type in all cases: in vivo
[1] = system: barnyardgrass (Echinochloa crus-galli); experiment: Test A preemergence, barnyardgrass; conditions: Preemergence; for Plant response rating, Barnyardgrass: 0 to 100 scale (0 no effect, 100 complete control); for Barnyardgrass plant response rating: 125 g ai/ha, visual injury on 0 to 100 scale (0 no effect, 100 complete control), approximately 10 days
Outline: (§1)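 Preemergence: seeded pots of loam plus sand received a directed soil spray. Postemergence: seedlings at one to two leaves, 2 to 10 cm high, were oversprayed. Each compound was formulated in a non-phytotoxic solvent mix that included a surfactant.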

[2] = system: pigweed (Amaranthus retroflexus); experiment: Test A preemergence, pigweed; conditions: for Plant response rating, Pigweed: 0 to 100 scale (0 no effect, 100 complete control); for Pigweed plant response rating: 125 g ai/ha, visual injury on 0 to 100 scale (0 no effect, 100 complete control), approximately 10 days
Outline: (§2)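 Seeds are sown in loam mixed with sand and sprayed on the soil surface right after planting for the preemergence test. Postemergence pots are sprayed once seedlings reach 2 to 10 cm at the one- to two-leaf stage. The same surfactant-containing, non-phytotoxic solvent formulation serves both.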

[3] = system: wheat (Triticum aestivum); experiment: Test A postemergence, wheat; conditions: Postemergence
Outline: as §2

[4] = system: ragweed (common ragweed, Ambrosia artemisiifolia); experiment: Test A preemergence, ragweed; conditions: Preemergence; for Plant response rating, Ragweed: 0 to 100 scale (0 no effect, 100 complete control); for Ragweed plant response rating: 125 g ai/ha, visual injury on 0 to 100 scale (0 no effect, 100 complete control), approximately 10 days
Outline: as §1

[5] = system: barnyardgrass (Echinochloa crus-galli); experiment: Test A postemergence, barnyardgrass; conditions: Postemergence, 0 to 100 scale (0 no effect, 100 complete control)
Outline: as §2

kochia (Bassia scoparia) [6] = experiment: Test A postemergence, kochia; conditions: Postemergence
Outline: as §1

[7] = system: blackgrass (Alopecurus myosuroides); experiment: Test A postemergence, blackgrass; conditions: Postemergence, 0 to 100 scale (0 no effect, 100 complete control)
Outline: as §1

[8] = system: ragweed (common ragweed, Ambrosia artemisiifolia); experiment: Test A postemergence, ragweed; conditions: Postemergence
Outline: as §1

kochia (Bassia scoparia) [9] = experiment: Test A preemergence, kochia; conditions: Preemergence; for Plant response rating, Kochia: 0 to 100 scale (0 no effect, 100 complete control); for Kochia plant response rating: 125 g ai/ha, visual injury on 0 to 100 scale (0 no effect, 100 complete control), approximately 10 days
Outline: as §1

[10] = system: Foxtail, Giant (giant foxtail, Setaria faberi); experiment: Test A preemergence, Foxtail, Giant; conditions: Preemergence; for Plant response rating, Foxtail, Giant: 0 to 100 scale (0 no effect, 100 complete control); for Foxtail, Giant plant response rating: 125 g ai/ha, visual injury on 0 to 100 scale (0 no effect, 100 complete control), approximately 10 days
Outline: as §1

[11] = system: Ryegrass, Italian (Italian ryegrass, Lolium multiflorum); experiment: Test A postemergence, Ryegrass, Italian; conditions: Postemergence
Outline: as §1

[12] = system: Foxtail, Giant (giant foxtail, Setaria faberi); experiment: Test A postemergence, Foxtail, Giant; conditions: Postemergence
Outline: as §1

[13] = system: galium (catchweed bedstraw, Galium aparine); experiment: Test A postemergence, galium; conditions: Postemergence
Outline: as §2

[14] = system: Ryegrass, Italian (Italian ryegrass, Lolium multiflorum); experiment: Test A preemergence, Ryegrass, Italian; conditions: Preemergence; for Plant response rating, Ryegrass, Italian: 0 to 100 scale (0 no effect, 100 complete control); for Ryegrass, Italian plant response rating: 125 g ai/ha, visual injury on 0 to 100 scale (0 no effect, 100 complete control), approximately 10 days
Outline: as §1

[15] = system: pigweed (Amaranthus retroflexus); experiment: Test A postemergence, pigweed; conditions: Postemergence
Outline: as §1

corn (Zea mays) = experiment: Test A postemergence, corn; conditions: Postemergence
Outline: as §1

[16] = 31 g ai/ha, visual injury, approx. 10 days
[17] = 31 g ai/ha, visual injury on 0 to 100 scale (0 no effect, 100 complete control), approx. 10 days
[18] = 125 g ai/ha, visual injury approx. 10 days, 0 to 100 scale (0 no effect, 100 complete control)
[19] = 125 g ai/ha, visual injury approx. 10 days
[20] = 1000 g ai/ha, visual injury, 0 to 100 scale (0 no effect, 100 complete control), approx. 10 days
[21] = 1000 g ai/ha, visual injury, approx. 10 days
[22] = 500 g ai/ha, visual injury, 0 to 100 scale (0 no effect, 100 complete control), approx. 10 days
[23] = 500 g ai/ha, visual injury, approx. 10 days
[24] = 500 g ai/ha, visual injury vs untreated controls after approx. 10 days, 0 to 100 scale (0 no effect, 100 complete control)
[25] = 500 g ai/ha, visual injury vs untreated controls after approx. 10 days

Compound	Barnyardgrass plant response rating [1]	Pigweed plant response rating [2]	Plant response rating, Wheat [3, 18]	Ragweed plant response rating [4]	Plant response rating, Barnyardgrass [5, 19]	Plant response rating, Kochia (kochia (Bassia scoparia) [6]; [18])	Plant response rating, Blackgrass [7, 19]	Plant response rating, Ragweed [8, 18]	Kochia plant response rating (kochia (Bassia scoparia) [9])	Foxtail, Giant plant response rating [10]	Plant response rating, Ryegrass, Italian [11, 18]	Plant response rating, Foxtail, Giant [12, 18]	Plant response rating, Galium [13, 18]	Ryegrass, Italian plant response rating [14]	Plant response rating, Pigweed [15, 18]	Plant response rating, Corn (corn (Zea mays); [18])	Plant response rating, Barnyardgrass ([1]; 500 g ai/ha)	Plant response rating, Pigweed ([2]; 500 g ai/ha)	Plant response rating, Ragweed ([4]; 500 g ai/ha)	Plant response rating, Kochia (kochia (Bassia scoparia) [9]; 500 g ai/ha)	further results
COC1CCN(C(=O)c2cc(NS(=O)(=O)C(F)(F)F)c(C)cc2C)C1 (stereo not shown) [Compound 113]	20	90	20	60	80	50	0	90	50	60	50	30	80	80	90	0					Plant response rating, Barnyardgrass [1, 16]: 0; Plant response rating, Pigweed [2, 16]: 30; Plant response rating, Wheat [3, 17]: 0; Plant response rating, Ragweed [4, 16]: 0; Plant response rating, Barnyardgrass ([5]; 31 g ai/ha): 20; Plant response rating, Kochia (kochia (Bassia scoparia) [6]; [17]): 10; Plant response rating, Blackgrass ([7]; 31 g ai/ha): 0; Plant response rating, Ragweed [8, 17]: 80; Plant response rating, Kochia (kochia (Bassia scoparia) [9]; [16]): 10; Plant response rating, Foxtail, Giant [10, 16]: 10; Plant response rating, Ryegrass, Italian [11, 17]: 20; Plant response rating, Foxtail, Giant [12, 17]: 0; Plant response rating, Galium [13, 17]: 70; Plant response rating, Ryegrass, Italian [14, 16]: 0; Plant response rating, Pigweed [15, 17]: 80; Plant response rating, Corn (corn (Zea mays); [17]): 0
COc1cc(Cl)c(NS(=O)(=O)C(F)(F)F)cc1C(=O)N1CCOCC1 [Compound 258]																					Plant response rating, Barnyardgrass ([1]; 1000 g ai/ha): 80; Plant response rating, Pigweed ([2]; 1000 g ai/ha): 100; Plant response rating, Wheat [3, 20]: 30; Plant response rating, Ragweed ([4]; 1000 g ai/ha): 90; Plant response rating, Barnyardgrass [5, 21]: 70; Plant response rating, Kochia (kochia (Bassia scoparia) [6]; [20]): 90; Plant response rating, Blackgrass [7, 21]: 50; Plant response rating, Ragweed [8, 20]: 80; Plant response rating, Kochia (kochia (Bassia scoparia) [9]; 1000 g ai/ha): 90; Plant response rating, Foxtail, Giant ([10]; 1000 g ai/ha): 90; Plant response rating, Ryegrass, Italian [11, 20]: 70; Plant response rating, Foxtail, Giant [12, 20]: 50; Plant response rating, Galium [13, 20]: 80; Plant response rating, Ryegrass, Italian ([14]; 1000 g ai/ha): 70; Plant response rating, Pigweed [15, 20]: 80; Plant response rating, Corn (corn (Zea mays); [20]): 10
Cc1cc(Cl)c(NS(=O)(=O)C(F)(F)F)cc1C(=O)N1CCC(C#N)CC1 [Compound 17]	100	90	70	80	30	60	0	80	70	100	0	90	80	80	60	10	100	100	80	90	Plant response rating, Wheat [3, 22]: 60; Plant response rating, Barnyardgrass [5, 23]: 90; Plant response rating, Kochia (kochia (Bassia scoparia) [6]; [22]): 70; Plant response rating, Blackgrass [7, 23]: 30; Plant response rating, Ragweed [8, 22]: 90; Plant response rating, Foxtail, Giant ([10]; 500 g ai/ha): 100; Plant response rating, Ryegrass, Italian [11, 22]: 70; Plant response rating, Foxtail, Giant [12, 22]: 90; Plant response rating, Galium [13, 22]: 90; Plant response rating, Ryegrass, Italian ([14]; 500 g ai/ha): 100; Plant response rating, Pigweed [15, 22]: 70; Plant response rating, Corn (corn (Zea mays); [22]): 20
CC(=O)OCN(c1cc(C2=NO[C@@H]3CCC[C@H]23)c(C)cc1C)S(=O)(=O)C(F)(F)F (relative stereo) [Compound 102]	80	100	40	20	90	70	0	70	70	80	80	30	100	90	70	10	100	100	70	90	Wheat plant response rating [3, 24]: 80; Barnyardgrass plant response rating [5, 25]: 90; Kochia plant response rating (kochia (Bassia scoparia) [6]; [24]): 90; Blackgrass plant response rating [7, 25]: 0; Ragweed plant response rating [8, 24]: 90; Plant response rating, Foxtail, Giant ([10]; 500 g ai/ha): 90; Ryegrass, Italian plant response rating [11, 24]: 90; Foxtail, Giant plant response rating [12, 24]: 70; Galium plant response rating [13, 24]: 100; Plant response rating, Ryegrass, Italian ([14]; 500 g ai/ha): 90; Pigweed plant response rating [15, 24]: 80; Corn plant response rating (corn (Zea mays); [24]): 30
